Measured values reported in PubChem BioAssay AID1918955 (Molecular Pharmacology Branch, DTP, NCI, 2023).

Tested on: NCI/ADR-RES complex spheroid viability
Assay: Anticancer human tumor NCI/ADR-RES cell line growth inhibition;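 as to viability, T/C: 100% = DMSO vehicle treated spheroids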
Conditions: for IC50: curve of first compound; for viability, T/C: stronger effect = lower value; active = viability on the fitted dose curve at most 10% of control; inactive = the rest
Summary of the method: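 Complex spheroids of tumor cells with HUVEC and human MSCs, exposed to iadademstat combined with other agents. Each agent tested in half-log steps from near clinical Cmax (else 10 microM top), DMSO ≤0.25%.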

[1] = second compound 0.1 µM, first compound 0.00316 µM
[2] = second compound 0.1 µM, first compound 0.01 µM
[3] = second compound 0.1 µM, first compound 0.0316 µM
[4] = second compound 0.1 µM, first compound 0.1 µM
[5] = second compound 0.316 µM, first compound 0.00316 µM
[6] = second compound 0.316 µM, first compound 0.01 µM
[7] = second compound 0.316 µM, first compound 0.0316 µM
[8] = second compound 0.316 µM, first compound 0.1 µM
[9] = second compound 1 µM, first compound 0.00316 µM
[10] = second compound 1 µM, first compound 0.01 µM
[11] = second compound 1 µM, first compound 0.0316 µM
[12] = second compound 1 µM, first compound 0.1 µM
[13] = second compound 3.16 µM, first compound 0.00316 µM
[14] = second compound 3.16 µM, first compound 0.01 µM
[15] = second compound 3.16 µM, first compound 0.0316 µM
[16] = second compound 3.16 µM, first compound 0.1 µM
[17] = second compound 10 µM, first compound 0.00316 µM
[18] = second compound 10 µM, first compound 0.01 µM
[19] = second compound 10 µM, first compound 0.0316 µM
[20] = second compound 10 µM, first compound 0.1 µM

COc1cc(Nc2ncc3c(n2)-c2ccc(Cl)cc2C(c2c(F)cccc2OC)=NC3)ccc1C(=O)O + NC1CCC(NC2CC2c2ccccc2)CC1
active: viability, T/C (second compound 10 µM, first compound 1 µM) 8.65%
20.8 nM: IC50 (second compound 0.1 µM)
inactive: viability, T/C [1] 92% | viability, T/C [2] 71% | viability, T/C [3] 38% | viability, T/C [4] 23.2% | viability, T/C (second compound 0.1 µM, first compound 0.316 µM) 18.2% | viability, T/C (second compound 0.1 µM, first compound 1 µM) 20.5% | viability, T/C [5] 92% | viability, T/C [6] 75% | viability, T/C [7] 37.1% | viability, T/C [8] 18.1% | viability, T/C (second compound 0.316 µM, first compound 0.316 µM) 20% | viability, T/C (second compound 0.316 µM, first compound 1 µM) 17.4% | viability, T/C [9] 90.4% | viability, T/C [10] 61% | viability, T/C [11] 40.2% | viability, T/C [12] 18.6% | viability, T/C (second compound 1 µM, first compound 0.316 µM) 16.6% | viability, T/C (second compound 1 µM, first compound 1 µM) 18.8% | viability, T/C [13] 90.6% | viability, T/C [14] 63.4% | viability, T/C [15] 32.7% | viability, T/C [16] 19.1% | viability, T/C (second compound 3.16 µM, first compound 0.316 µM) 12.3% | viability, T/C (second compound 3.16 µM, first compound 1 µM) 12.7% | viability, T/C [17] 82% | viability, T/C [18] 63.7% | viability, T/C [19] 30.3% | viability, T/C [20] 17.5% | viability, T/C (second compound 10 µM, first compound 0.316 µM) 9.8%
16.6 nM: IC50 (second compound 3.16 µM)
17.5 nM: IC50 (second compound 1 µM)
16.1 nM: IC50 (second compound 10 µM)
21.2 nM: IC50 (second compound 0.316 µM)

Cn1ncnc1C1c2n[nH]c(=O)c3cc(F)cc(c23)NC1c1ccc(F)cc1 (stereo not given) + NC1CCC(NC2CC2c2ccccc2)CC1
> 100 nM: IC50 (second compound 0.1 µM) | IC50 (second compound 0.316 µM) | IC50 (second compound 1 µM) | IC50 (second compound 3.16 µM) | IC50 (second compound 10 µM)
inactive: viability, T/C (second compound 0.1 µM, first compound 0.000316 µM) 110% | viability, T/C (second compound 0.1 µM, first compound 0.001 µM) 108% | viability, T/C [1] 110% | viability, T/C [2] 103% | viability, T/C [3] 103% | viability, T/C [4] 96.6% | viability, T/C (second compound 0.316 µM, first compound 0.000316 µM) 109% | viability, T/C (second compound 0.316 µM, first compound 0.001 µM) 106% | viability, T/C [5] 102% | viability, T/C [6] 102% | viability, T/C [7] 104% | viability, T/C [8] 103% | viability, T/C (second compound 1 µM, first compound 0.000316 µM) 105% | viability, T/C (second compound 1 µM, first compound 0.001 µM) 109% | viability, T/C [9] 105% | viability, T/C [10] 104% | viability, T/C [11] 102% | viability, T/C [12] 98% | viability, T/C (second compound 3.16 µM, first compound 0.000316 µM) 106% | viability, T/C (second compound 3.16 µM, first compound 0.001 µM) 109% | viability, T/C [13] 104% | viability, T/C [14] 109% | viability, T/C [15] 101% | viability, T/C [16] 105% | viability, T/C (second compound 10 µM, first compound 0.000316 µM) 89.4% | viability, T/C (second compound 10 µM, first compound 0.001 µM) 95.9% | viability, T/C [17] 102% | viability, T/C [18] 92.9% | viability, T/C [19] 89.8% | viability, T/C [20] 84.5%

NS(=O)(=O)OCC1CC(n2ccc3c(NC4CCc5ccccc54)ncnc32)CC1O (stereo not given) + NC1CCC(NC2CC2c2ccccc2)CC1
660 nM: IC50 (second compound 3.16 µM)
active: viability, T/C (second compound 10 µM, first compound 3 µM) 7.61%
740 nM: IC50 (second compound 1 µM)
inactive: viability, T/C (second compound 0.1 µM, first compound 0.00949 µM) 99.1% | viability, T/C (second compound 0.1 µM, first compound 0.03 µM) 98.9% | viability, T/C (second compound 0.1 µM, first compound 0.0949 µM) 84.9% | viability, T/C (second compound 0.1 µM, first compound 0.3 µM) 73.8% | viability, T/C (second compound 0.1 µM, first compound 0.949 µM) 52.3% | viability, T/C (second compound 0.1 µM, first compound 3 µM) 14.4% | viability, T/C (second compound 0.316 µM, first compound 0.00949 µM) 99.2% | viability, T/C (second compound 0.316 µM, first compound 0.03 µM) 92.4% | viability, T/C (second compound 0.316 µM, first compound 0.0949 µM) 87.5% | viability, T/C (second compound 0.316 µM, first compound 0.3 µM) 74.7% | viability, T/C (second compound 0.316 µM, first compound 0.949 µM) 47.9% | viability, T/C (second compound 0.316 µM, first compound 3 µM) 15.7% | viability, T/C (second compound 1 µM, first compound 0.00949 µM) 109% | viability, T/C (second compound 1 µM, first compound 0.03 µM) 95.6% | viability, T/C (second compound 1 µM, first compound 0.0949 µM) 86.5% | viability, T/C (second compound 1 µM, first compound 0.3 µM) 70.3% | viability, T/C (second compound 1 µM, first compound 0.949 µM) 43.3% | viability, T/C (second compound 1 µM, first compound 3 µM) 16.8% | viability, T/C (second compound 3.16 µM, first compound 0.00949 µM) 93.6% | viability, T/C (second compound 3.16 µM, first compound 0.03 µM) 93% | viability, T/C (second compound 3.16 µM, first compound 0.0949 µM) 86.2% | viability, T/C (second compound 3.16 µM, first compound 0.3 µM) 70.8% | viability, T/C (second compound 3.16 µM, first compound 0.949 µM) 40.4% | viability, T/C (second compound 3.16 µM, first compound 3 µM) 20.4% | viability, T/C (second compound 10 µM, first compound 0.00949 µM) 87.3% | viability, T/C (second compound 10 µM, first compound 0.03 µM) 86.8% | viability, T/C (second compound 10 µM, first compound 0.0949 µM) 73.8% | viability, T/C (second compound 10 µM, first compound 0.3 µM) 50.5% | viability, T/C (second compound 10 µM, first compound 0.949 µM) 31.3%
986 nM: IC50 (second compound 0.1 µM)
353 nM: IC50 (second compound 10 µM)
890 nM: IC50 (second compound 0.316 µM)
